In one assay the target is T1, mouse NMUR1-ATG (Mus musculus, UniProt O55040).
T1 construct: expressed in transfected cells; host or cells: FLP-In CHO cells and HEK-293 FLP-In cells (pcDNA5)
T1 sequence (O55040 1-428): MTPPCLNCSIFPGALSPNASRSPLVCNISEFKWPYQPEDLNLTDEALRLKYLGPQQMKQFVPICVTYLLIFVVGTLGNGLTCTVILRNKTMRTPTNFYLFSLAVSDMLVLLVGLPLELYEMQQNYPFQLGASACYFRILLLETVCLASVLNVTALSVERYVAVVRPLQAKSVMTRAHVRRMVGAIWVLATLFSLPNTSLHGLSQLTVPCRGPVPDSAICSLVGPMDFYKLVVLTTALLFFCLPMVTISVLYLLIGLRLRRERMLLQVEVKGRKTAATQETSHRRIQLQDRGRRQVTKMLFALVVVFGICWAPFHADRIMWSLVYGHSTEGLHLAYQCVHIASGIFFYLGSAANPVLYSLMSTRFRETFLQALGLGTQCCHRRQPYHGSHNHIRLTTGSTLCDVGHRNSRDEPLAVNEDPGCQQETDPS
As to the kind of experiment: FLIPR calcium mobilization assay, mouse NMUR1-ATG cell line. Format: cell-based. Conditions: for % Activity: maximum response at 1 μM compared to the human NMU-25 response at the same concentration. From the text: (§1) Human, mouse or rat cDNAs encoding NMUR1 or NMUR2 (as described in Howard et al. Nature 406: 70-74 (2000) were subcloned in pcDNA5 (Invitrogen) and transfected into FLP-In CHO cells and HEK-293 FLP-In cells purchased from Invitrogen (Carlsbad, Calif.) using lipofectamine (Invitrogen). The Flp-In system allows integration and expression of a particular gene of interest at a specific genomic location utilizing the Flp recombinase from yeast. The transfected cells were selected by growth in medium containing 200 μg/mL hygromycin (Invitrogen). Populations were frozen at early passage numbers, and these stocks were used for further studies. Stable clones that expressed the mRNAs were identified functionally by FLIPR as well as by RT-PCR. […] Two different rodent NMUR1 cell lines were thus generated: one with the codon as predicted from the genomic databases and another cell line with an engineered methionine (ATG) as the start codon. The dog NMU receptors were also cloned from intestine RNA (NMUR1) and brain (NMUR2) and stable cell lines were generated as used for the human and rodent cell lines. […] To ensure high levels of expression in a heterologous system, a dog NMUR1 cell line was generated that contains an ATG as the start codon. Additionally, stable cell lines expressing the human receptors were generated in HEK-293/aeq 17 cells which stably express the aequorin gene under the CMV promoter. The human NMUR2 cDNA was cloned into pcDNA3.1 and human NMUR1 was subcloned into pIRES-puro (Clontech, Mountain View, Calif.), after transfection cells were selected in media containing G418 and either hygromycin (NMUR2) or puromycin (NMUR1).
(§2) The NMU receptors signal primarily through Gαq/11 proteins; therefore calcium mobilization assays can be utilized for functional activity.
(§3) Stable cell lines expressing human and or rodent NMUR1 or human NMUR2 receptors are plated at a density of 12,000 cells per well overnight on poly-lysine coated 384-well black-walled plates. The following day, the media is removed from the plates and the cells were subsequently loaded with Fluo-3 (Molecular Probes), a calcium sensitive dye, diluted in FLIPR buffer (1× Hank's buffered saline containing 20 mM HEPES, 0.1% BSA, 2.5 mM probenecid (Sigma) and 1.6 mM TR40). All reagents are from Invitrogen unless otherwise noted. Peptide stocks are resuspended in DMSO at a stock concentration of 2 mM and diluted in FLIPR buffer on the day of the experiment to a 4 μM working stock solution.
(§4) After a 90 minute incubation at room-temperature, cell plates are loaded onto a FLIPR (Molecular Devices) to monitor cellular fluorescence (excitation=488 nm; emission=540 nm) before and after compound/peptide addition. Eight to twelve point dose responses are tested on NMUR-expressing cell lines using FLIPR with 1 μM peptide as the highest dose. The response after peptide addition is taken as the maximum fluorescence units minus the fluorescence immediately prior to stimulation for each well. EC50 values are calculated using GraphPad Prism (San Diego, Calif.) software.
(§5) Percent activity refers to the maximum response at 1 μM compared to the human NMU-25 response at the same concentration.
(In general: Calcium flux is commonly read through the fluorescence of an indicator in the cells.)

For another assay, the target named is T2, human NMUR2 (Homo sapiens, UniProt Q9GZQ4).
T2 construct: expressed in transfected cells; host or cells: FLP-In CHO cells and HEK-293 FLP-In cells (pcDNA5)
T2 sequence (Q9GZQ4 whole entry): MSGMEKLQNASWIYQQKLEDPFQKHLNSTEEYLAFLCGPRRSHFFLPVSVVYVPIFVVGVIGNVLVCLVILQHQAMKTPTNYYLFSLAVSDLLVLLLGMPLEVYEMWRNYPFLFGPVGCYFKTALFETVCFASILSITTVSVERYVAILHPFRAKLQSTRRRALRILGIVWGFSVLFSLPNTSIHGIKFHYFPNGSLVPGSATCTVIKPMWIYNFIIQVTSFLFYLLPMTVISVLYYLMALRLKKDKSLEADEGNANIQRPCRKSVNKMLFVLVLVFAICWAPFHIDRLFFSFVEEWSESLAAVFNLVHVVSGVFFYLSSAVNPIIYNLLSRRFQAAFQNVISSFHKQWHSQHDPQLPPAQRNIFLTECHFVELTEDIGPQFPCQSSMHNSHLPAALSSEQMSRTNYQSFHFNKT
Kind of assay: FLIPR calcium mobilization assay, human NMUR2-expressing cell line. Format: cell-based. Conditions: for % Activity: human NMUR2, maximum response at 1 μM compared to the human NMU-25 response at the same concentration.
Description: as §1, §2, §3, §4, §5

The target in the next assay is T3, human NMUR1 (Homo sapiens, UniProt Q9HB89).
T3 construct: expressed in transfected cells; host or cells: FLP-In CHO cells and HEK-293 FLP-In cells (pcDNA5)
T3 sequence (Q9HB89 1-426): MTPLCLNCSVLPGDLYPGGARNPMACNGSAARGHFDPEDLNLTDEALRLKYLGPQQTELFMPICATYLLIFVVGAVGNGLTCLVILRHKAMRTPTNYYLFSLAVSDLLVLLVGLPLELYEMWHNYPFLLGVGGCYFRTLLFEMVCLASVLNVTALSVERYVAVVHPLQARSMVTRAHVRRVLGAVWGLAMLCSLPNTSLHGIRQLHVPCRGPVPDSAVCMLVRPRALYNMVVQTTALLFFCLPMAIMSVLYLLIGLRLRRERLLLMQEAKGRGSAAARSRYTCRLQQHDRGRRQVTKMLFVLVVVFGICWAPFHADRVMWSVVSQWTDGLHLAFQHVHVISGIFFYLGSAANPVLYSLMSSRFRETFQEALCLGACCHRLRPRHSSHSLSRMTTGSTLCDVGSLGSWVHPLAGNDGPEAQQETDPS
Kind of assay: FLIPR calcium mobilization assay, human NMUR1-expressing cell line. Conditions: for % Activity: human NMUR1, maximum response at 1 μM compared to the human NMU-25 response at the same concentration. Format: cell-based.
Description: as §1, §2, §3, §4, §5

In a further assay the target is T4, dog NMUR2 (Canis lupus familiaris, UniProt A0A8I3MN59).
T4 construct: expressed in transfected cells
T4 sequence (A0A8I3MN59 1-378): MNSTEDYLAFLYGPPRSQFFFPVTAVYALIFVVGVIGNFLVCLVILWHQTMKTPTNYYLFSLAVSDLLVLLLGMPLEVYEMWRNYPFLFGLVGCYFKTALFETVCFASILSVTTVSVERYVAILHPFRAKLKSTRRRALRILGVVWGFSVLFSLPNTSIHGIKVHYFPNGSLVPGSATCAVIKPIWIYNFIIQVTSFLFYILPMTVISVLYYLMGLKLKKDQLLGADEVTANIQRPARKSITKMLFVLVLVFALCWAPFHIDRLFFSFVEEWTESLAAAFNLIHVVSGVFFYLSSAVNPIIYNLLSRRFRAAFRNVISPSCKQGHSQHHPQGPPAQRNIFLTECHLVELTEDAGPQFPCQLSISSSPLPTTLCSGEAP
Kind of assay: FLIPR calcium mobilization assay, dog NMUR2 cell line. As to conditions: for % Activity: dog NMUR2, maximum response at 1 μM compared to the human NMU-25 response at the same concentration. It counts as cell-based.
Description: as §1, §2, §3, §4, §5

A further assay concerns the target T5, mouse NMUR2 (Mus musculus, UniProt Q8BZ39).
T5 construct: expressed in transfected cells; host or cells: FLP-In CHO cells and HEK-293 FLP-In cells (pcDNA5)
Kind of assay: FLIPR calcium mobilization assay, mouse NMUR2 cell line. Format: cell-based. Conditions: for % Activity: mouse NMUR2, maximum response at 1 μM compared to the human NMU-25 response at the same concentration.
Description: as §1, §2, §3, §4, §5

The next assay deals with dog NMUR1-ATG. As to the kind of experiment: FLIPR calcium mobilization assay, dog NMUR1-ATG cell line. Format: cell-based. Conditions: for EC50: FLIPR; for % Activity: maximum response at 1 μM compared to the human NMU-25 response at the same concentration.
Description: as §1, §2, §3, §4, §5

The subject of another assay is mice. As to the kind of experiment: Acute subcutaneous administration of NMS analogs, daily food intake and body weight. As to conditions: for food intake: lipidated analogs compared to NMS1, FIG. 10A; for body weight: lipidated analogs compared to NMS1, FIG. 10B. Format: in vivo.

What is called EC50 is the midpoint of the concentration-response curve.

SMILES strings stand for the structures. Residues, ends and D or L forms follow the SMILES beside them. *: point of attachment. X1 = CC(C)CCC[C@@H](C)[C@H]1CC[C@H]2[C@@H]3CC=C4C[C@@H](OC(=O)C*)CC[C@]4(C)[C@H]3CC[C@]12C

T5 sequence (Q8BZ39 whole entry): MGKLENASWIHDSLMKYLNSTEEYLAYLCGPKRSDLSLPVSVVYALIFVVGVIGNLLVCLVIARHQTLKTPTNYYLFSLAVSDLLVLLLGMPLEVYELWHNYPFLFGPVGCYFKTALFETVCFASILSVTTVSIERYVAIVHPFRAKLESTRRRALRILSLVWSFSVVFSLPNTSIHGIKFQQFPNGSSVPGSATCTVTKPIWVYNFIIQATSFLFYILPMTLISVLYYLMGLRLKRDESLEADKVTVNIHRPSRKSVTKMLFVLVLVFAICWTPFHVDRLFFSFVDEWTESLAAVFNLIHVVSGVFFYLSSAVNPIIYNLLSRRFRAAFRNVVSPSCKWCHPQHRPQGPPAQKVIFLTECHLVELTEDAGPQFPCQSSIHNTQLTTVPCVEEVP

In the case of `CC[C@H](C)[C@H](NC(=O)[C@H](CSCC(=O)O[C@H]1CC[C@@]2(C)C(=CC[C@H]3[C@@H]4CC[C@H]([C@H](C)CCCC(C)C)[C@@]4(C)CC[C@@H]32)C1)NC(C)=O)C(=O)N[C@@H](CC(C)C)C(=O)N[C@@H](CCC(N)=O)C(=O)N[C@@H](CCCNC(=N)N)C(=O)NCC(=O)N[C@@H](CO)C(=O)NCC(=O)N[C@H](C(=O)N[C@@H](C)C(=O)N[C@@H](C)C(=O)N[C@H](C(=O)N[C@@H](CC(=O)O)C(=O)N[C@@H](Cc1ccccc1)C(=O)N[C@H](C(=O)N[C@@H](CCCCN)C(=O)N[C@@H](CCCCN)C(=O)N[C@@H](CC(=O)O)C(=O)N[C@@H](Cc1c[nH]cn1)C(=O)N[C@H](C(=O)N[C@@H](C)C(=O)N[C@H](C(=O)N[C@@H](Cc1c[nH]c2ccccc12)C(=O)NCC(=O)N[C@@H](CCCNC(=N)N)C(=O)N1CCC[C@H]1C(=O)N[C@@H](Cc1ccccc1)C(=O)N[C@@H](Cc1ccccc1)C(=O)N[C@@H](CC(C)C)C(=O)N[C@@H](Cc1ccccc1)C(=O)N[C@@H](CCCNC(=N)N)C(=O)N1CCC[C@H]1C(=O)N[C@@H](CCCNC(=N)N)C(=O)N[C@@H](CC(N)=O)C(N)=O)[C@@H](C)O)[C@@H](C)O)[C@@H](C)O)C(C)C)[C@@H](C)O` [NMS2] (Ac-C(X1)ILQRGSGTAAVDFTKKDHTATWGRPFFLFRPRN-NH2), the “% Activity” value came to 39% on mouse NMUR1-ATG; 16% on human NMUR2; 11% at human NMUR1; 84% at dog NMUR2; 32% at mouse NMUR2; 46% in the assay on dog NMUR1-ATG. Further, the EC50 in the assay on dog NMUR1-ATG was at least 1000 nM. Also, the food intake result with mice is “significantly reduce”. The body weight result with mice is reported as “significantly reduce”.

In the case of `CCCCCCCCCCCCCCCC(=O)N[C@H](C(=O)N[C@@H](CC(C)C)C(=O)N[C@@H](CCC(N)=O)C(=O)N[C@@H](CCCNC(=N)N)C(=O)NCC(=O)N[C@@H](CO)C(=O)NCC(=O)N[C@H](C(=O)N[C@@H](C)C(=O)N[C@@H](C)C(=O)N[C@H](C(=O)N[C@@H](CC(=O)O)C(=O)N[C@@H](Cc1ccccc1)C(=O)N[C@H](C(=O)N[C@@H](CCCCN)C(=O)N[C@@H](CCCCN)C(=O)N[C@@H](CC(=O)O)C(=O)N[C@@H](Cc1c[nH]cn1)C(=O)N[C@H](C(=O)N[C@@H](C)C(=O)N[C@H](C(=O)N[C@@H](Cc1c[nH]c2ccccc12)C(=O)NCC(=O)N[C@@H](CCCNC(=N)N)C(=O)N1CCC[C@H]1C(=O)N[C@@H](Cc1ccccc1)C(=O)N[C@@H](Cc1ccccc1)C(=O)N[C@@H](CC(C)C)C(=O)N[C@@H](Cc1ccccc1)C(=O)N[C@@H](CCCNC(=N)N)C(=O)N1CCC[C@H]1C(=O)N[C@@H](CCCNC(=N)N)C(=O)N[C@@H](CC(N)=O)C(N)=O)[C@@H](C)O)[C@@H](C)O)[C@@H](C)O)C(C)C)[C@@H](C)O)[C@@H](C)CC` [NMS5] (HELM PEPTIDE1{[CCCCCCCCCCCCCCCC(=O)[*:2]].I.L.Q.R.G.S.G.T.A.A.V.D.F.T.K.K.D.H.T.A.T.W.G.R.P.F.F.L.F.R.P.R.N.[am]}$$$$V2.0), the concentration for a half-maximal effect (EC50) was 12.5 nM on mouse NMUR1-ATG (FLIPR); 214 nM on human NMUR2 (human NMUR2, FLIPR); 248 nM at human NMUR1 (human NMUR1, FLIPR); 18.8 nM at dog NMUR2 (dog NMUR2, FLIPR); 40.1 nM on mouse NMUR2 (mouse NMUR2, FLIPR); at least 1000 nM in the assay on dog NMUR1-ATG. Moreover, the “% Activity” value stood at 83% at mouse NMUR1-ATG; 93% on human NMUR2; 85% on human NMUR1; 100% at dog NMUR2; 78% at mouse NMUR2; 82% in the assay on dog NMUR1-ATG. Moreover, the food intake entry in the assay with mice was “significantly reduce”. In addition, the body weight result with mice is recorded as “significantly reduce”.

Values taken from patent publication US20110301079A1, “NEUROMEDIN U RECEPTOR AGONISTS AND USES THEREOF” (Instituto di Ricerche di Biologia Molecolare P. Angeletti …, priority 2007, published 2011).
